Assay results: patent US5770625A, “Butyryl-tyrosinyl spermine, analogs thereof and methods of preparing and using same” (priority 1994, dated 1998)
“Also recorded” adds a separate entry of the source. Read-outs that look alike come from different tables or passages of the source.

What was measured:
[1] = system: locust muscle QUIS-R; test: Voltage dependence of antagonism of locust muscle QUIS-R; conditions: block relieved above about -100 mV
Source text: PhTX-343 binds to the QUIS-R channel, possible at a site located within its selectivity filter (35,36). Other studies in our laboratories have shown that antagonism of locust muscle QUIS-R by PhTX-343 and compound 13, the diiodo analogue, is voltage-dependent, as one might expect for open channel blockers carrying a net positive charge. […] Cation-selective membrane channels are generally envisaged as aqueous pores lined by fixed negative charges. In the case of the amphibian nicotinic acetylcholine receptor the latter are thought to be concentrated in three clusters in the vicinity of the selectively filter (41). […] The relative disposition and number of protonated groups on the toxin seems to be important in determining potency, which appears to be maximized for a given number of protonated groups when these have a constant spacing of three methylenes on their equivalents.

[2] = system: postsynaptic QUIS-R of locust leg muscle; test: Antagonism of neurally-evoked twitch contraction of locust retractor unguis nerve-muscle preparation; design: species or system Schistocerca gregaria; conditions: for physiological activity relative to that of PhTX-433, by locust muscle twitch inhibition concentration: PhTX-433 = 100%; for effect on the neurally-evoked twitch contraction (in words): toxin 1-10 μM
Source text: Electrophysiological studies. The metathoracic retractor unguis nerve-muscle preparation of the locust Schistocerca gregaria was dissected and mounted in a small Perspex bath as described previously (21). The pharmacological activity on the locust nerve muscle preparation, using reduction in neurally evoked twitch amplitude as the measure of activity. Ten fractions were pharmacologically active. […] Further purification of this fraction by reverse-phase HPLC gave four peaks (FIG. 2B), the most pharmacologically was in the major peak (hatched FIG. 2B) . This fraction gave 1.1 mg of toxin as amorphous powder.
The retractor unguis muscle and its nerve were dissected from the metathoracic legs of adult, female locusts (Schistocerca gregaria) and mounted in a Perspex perfusion chamber as described by Usherwood and Machili (21) and Bateman, et al. (14). The muscle was stretched to maximal body length and attached at its tendon or apodeme to a Grass FT 10-strain gauge by a short length of nylon thread. The volume of the muscle bath was about 0.5 ml and its contents could be exchanged within 1 sec. The preparation was perfused continuously at the rate of 5-10 ml min^-1 (except during the application of toxin (see below)) with standard locust saline of the following composition (mM): NaCl, 180; KCl, 10; CaCl2, 2; Hepes, 10; buffered to pH 6.8. The retractor unguis muscle is innervated by two excitatory motoneurons (30) and an inhibitory motoneuron (19,32), but the influence of the latter on the responsiveness of the muscle is slight. Maximal stimulation of the retractor unguis nerve at 0.2 Hz produced a series of twitch contractions of constant amplitude, which were maintained for many hours in good preparations. The test compounds were kept at -20° C. They were dissolved in locust saline on the day of the assay and tested at room temperature. The compounds were applied by pipette to a nerve-muscle preparation such that the contents of the perfusion bath were completely replaced by the test solution. Exposure to the test compound lasted 20 min. Because of the limited availability of some of the compounds, the preparation was not perfused during this period. However, the amplitude of the retractor unguis muscle twitch rarely changed by more than 5-10% over a 20 minute period. During application of the test solutions the stimulation frequency was raised to 0.6 Hz for brief periods to test for stimulus frequency-dependent effects on twitch amplitude (31,37). Dose-inhibition data were obtained by testing the effects, on single retractor unguis muscle preparations, of a range of concentrations of the test compounds. Each concentration of the respective samples was tested at least thee times, and each compound was assayed usually over a 100-fold concentration range (a total of 7-10 concentrations). The standard deviations for twitch inhibition for any given concentration of a toxin rarely exceed 10%. Those compounds for which the deviation was greater than this are identified in Tables 1-7. There was some variation in the potency of PhTX-343 and the test compounds between nerve-muscle preparations. In order to compensate for this, the following procedure was adopted: PhTX-343 was assayed at a variety of concentrations on eight retractor unguis nerve-muscle preparations to give a cumulative dose-inhibition relationship for this toxin. The concentration of PhTX-343 which reduced the twitch contraction by 50% (IC50) was then determined by fitting a curve to the data using the following equation: [formula] where: [T]= toxin concentration, I= % inhibition, Imax =maximum inhibition= 100% and n' represents the Hill slope coefficient. […] The ratio of the actual reduction in twitch amplitude obtained with this single concentration of PhTX-343 and the 50% reduction that was anticipated from the cumulative dose-inhibition relationship for this toxin, was then used as a factor to normalize the data for the test compound. […]

[3] = target: NMDA receptors of rat brain; test: Inhibition of glutamate-induced [3H]MK-801 binding to synaptic membranes (filtration assay); conditions: read-out: EC50 (the concentration that inhibits 50% of binding) of [3H]MK-801
Source text: Binding PhTX-433 to NMDA Receptor. The NMDA receptor is identified by its high affinity for the compound (+)-5-methyl-10,11-dihydro-5H-dibenzo[a,d]cyclohepten-5,10-imine maleate (MK-801). Th is compound is an anticonvulsant introduced by Merck Sharp & Dohme Co. and is a potent non-competitive antagonist of the NMDA receptor. Binding of [^3 H]MK-801 t o synaptic membranes from rat brain after thorough washing is extremely poor. However, the binding (measured by a filtration assay) is potentiated by glutamate in a dose-dependent manner and reaches maximal potentiation at 10 μM glutamate (26). The increase in binding of [^3 H]MK-801 resulting from addition of glutamate has been used as an index of NMDA recep tor binding.

[4] = system: postjunctional, quisqualate-sensitive glutamate receptors; test: Response of the retractor unguis muscle to bath-applied L-glutamate; design: species or system Schistocerca gregaria
[5] = Table 1, region A modifications, 20 min exposure, normalized with PhTX-343, ** SD < 30%, read-out: IC50
[6] = Table 1, relative to PhTX-343 = 1.0
[7] = Table 3, region C modifications, read-out: IC50
[8] = Table 3, relative to PhTX-343 = 1.0

## CCCC(=O)N[C@@H](Cc1cc(I)c(O)c(I)c1)C(=O)NCCCNCCCCNCCCN [Compound 13]
[1]
  voltage dependence of antagonism: voltage-dependent
[2]
  increase in potency compared with PhTX-343: 4.5 fold

## CCCC(=O)N[C@@H](Cc1ccc(O)cc1)C(=O)NCCCNCCCCNCCCN [Compound 1, PhTX-343]
[1]
  voltage dependence of antagonism: voltage-dependent
[2]
  potency compared with natural PhTX-433 (in words): somewhat less active
  physiological activity relative to that of PhTX-433, by locust muscle twitch inhibition concentration: 80%
  effect on the neurally-evoked twitch contraction (in words): influenced the twitch contraction in the same qualitative fashion as PhTX-433
[2]; cumulative dose-inhibition on eight nerve-muscle preparations, read-out: concentration which reduced the twitch contraction by 50% (IC50)
  IC50: 23 µM

## CCCC(=O)N[C@@H](Cc1ccc(O)cc1)C(N)=O [drawing 26]
[2]; [5]
  IC50: 500 µM
[2]; [6]
  Relative Potency: 0.05

## C/C=C/C=C/C(=O)N[C@@H](Cc1ccc(O)cc1)C(=O)NCCCNCCCCNCCCN [Compound 21]
[2]
  potency compared with PhTX-343 or other analogues (in words): very potent

## CCCC(=O)N[C@@H](Cc1ccc(O)cc1)C(N)=O [Compound 6, PhTX-0]
[2]
  potency compared with PhTX-343 or other analogues (in words): slightly more active than PhTX-4

## CCCCCCCCCC(=O)NCCCNCCCCNCCCNC(=O)CCCCCCCCC [Compound 52, bis-C10 -spermine]
[2]
  potency compared with PhTX-343 or other analogues (in words): as active as PhTX-343; also recorded: relatively high potencies

## CCCC(=O)N[C@@H](Cc1ccc(O)cc1)C(=O)NCCCCN [drawing 25]
[2]; [5]
  IC50: 2000 µM
[2]; [6]
  Relative Potency: 0.01

## NCCCNCCCCNCCCNC(=O)[C@H](Cc1ccc(O)cc1)NC(=O)/C=C/c1ccccc1 [Compound 25]
[2]
  potency compared with PhTX-343 or other analogues (in words): greatly increased potency

## CCCC(=O)N[C@@H](Cc1ccc(O)cc1)C(=O)NCCCNCCCCNCCCNC(=O)CCCN [Compound 34]
[2]
  potency compared with PhTX-343 or other analogues (in words): potency was reduced

## CCCCCCCCCC(=O)NCCCNCCCCNCCCNC(=O)CCCCCCCCC [drawing 82]
[2]; Table 7, bis-acyl spermine analogues, read-out: IC50
  IC50: 23 µM
[2]; Table 7, bis-acyl spermine analogues, relative to PhTX-343
  Relative Potency: 1.0

## CCCCCCC(=O)NCCCNCCCCNCCCNC(=O)CCCCCC
[2]; Table 7, bis-acyl spermine analogues
  IC50 (M): agonist

## NCCCNCCCCNCCCNC(=O)[C@H](Cc1ccc(O)cc1)NC(=O)/C=C/c1ccccc1 [drawing 49]
[2]; [7]
  IC50: 2 µM
[2]; [8]
  Relative Potency: 12.0

## NCCCNCCCCNCCCNC(=O)[C@H](Cc1ccc(O)cc1)NC(=O)c1ccccc1 [drawing 47]
[2]; [7]
  IC50: 2.83 µM
[2]; [8]
  Relative Potency: 8.2

## CCCCC(CNCCCN)CNCCCCNC(=O)[C@H](Cc1ccc(O)cc1)NC(=O)CCC (stereo partly drawn) [drawing 28]
[2]; [5]
  IC50: 4 µM
[2]; [6]
  Relative Potency: 5.6

## NCCCNCCCCNCCCNC(=O)[C@H](Cc1ccc(O)cc1)NC(=O)C1CCCCC1 [drawing 46]
[2]; [7]
  IC50: 9.3 µM
[2]; [8]
  Relative Potency: 2.5

## CCCC(=O)N[C@@H](Cc1ccc(O)cc1)C(=O)NCCCNCCCNCCCCN [Compound 3, PhTX-334]
[2]
  potency compared with natural PhTX-433 (in words): higher potency than the natural PhTX-433 toxin
  physiological activity relative to that of PhTX-433, by locust muscle twitch inhibition concentration: 125%
  effect on the neurally-evoked twitch contraction (in words): influenced the twitch contraction in the same qualitative fashion as PhTX-433

## CCCC(=O)N[C@@H](Cc1ccc(O)cc1)C(=O)NCCCCNCCCNCCCN [Compound 2, PhTX-433]
[3]
  EC50: 25 µM
[4]
  effect on the response of the muscle to L-glutamate: reduced the response of the retractor unguis muscle to L-glutamate
[2]
  effect on the neurally-evoked twitch contraction (in words): abolished the twitch

## [N-]=[N+]=C(C(=O)NCCCC(=O)N[C@@H](Cc1ccc(O)cc1)C(=O)NCCCNCCCCNCCCN)C(F)(F)F [drawing 51]
[2]; [7]
  IC50: 290 µM
[2]; [8]
  Relative Potency: 0.1

## CCCC(=O)N[C@@H](Cc1ccc(O)cc1)C(=O)NCCCNCCCCNCCCN [drawing 21]
[2]; [5]
  IC50: 23 µM
[2]; [6]
  Relative Potency: 1.0

## CCCCCCC(=O)N[C@@H](Cc1ccc(O)cc1)C(=O)NCCCNCCCCNCCCN [Compound 19]
[2]
  potency compared with PhTX-343 or other analogues (in words): successive increases in potency

## CCCC(=O)NCC(=O)NCCCNCCCCNCCCN [Compound 16, N-butyryl-L-glycine-spermine-amide]
[2]
  potency compared with PhTX-343 or other analogues (in words): greatly reduced activity

## NCCCNCCCCNCCCNC(=O)[C@H](Cc1ccc(O)cc1)NC(=O)CCCCCNC(=O)CCCCC1SCC2NC(=O)NC21 (stereo partly drawn)
[2]; Table 3, region C modifications
  IC50 (M): insol.

## NCCCNCCCCNCCCNC(=O)[C@H](Cc1ccc(O)cc1)NC(=O)Cc1ccccc1 [drawing 48]
[2]; [7]
  IC50: 12 µM
[2]; [8]
  Relative Potency: 0.5
